Read-outs that look alike come from different tables or passages of the source.
How the values were obtained:
AGS = assay: Proliferation assay (CellTiter Glo); type: cell-based; settings: 96 hours; for Top Inhibition %: % of top inhibition
Description: (§1) The dose range for most compounds was 4.6 nM-30 μM. The dose ranges for some compounds were adjusted downward to 0.46 nM-3 μM or 0.08 nM-0.5 μM or 0.03 nM-0.2 μM. […] The results are shown in Tables 3-6 for pancreatic cancer, lung cancer, colon/gastric cancer, and leukemia.

H358 = assay: Proliferation assay (CellTiter Glo); type: cell-based; settings: HE58, 96 hours; for Top Inhibition %: % of top inhibition
Description: as §1

H441 = assay: Proliferation assay (CellTiter Glo); type: cell-based; settings: 96 hours; for Top Inhibition %: % of top inhibition
Description: as §1

H727 = assay: Proliferation assay (CellTiter Glo); type: cell-based; settings: 96 hours; for Top Inhibition %: % of top inhibition
Description: as §1

HCT116 = assay: Proliferation assay (CellTiter Glo); type: cell-based; settings: 96 hours; for Top Inhibition %: % of top inhibition
Description: as §1

KP-4 = assay: Proliferation assay (CellTiter Glo); type: cell-based; settings: 96 hours; for Top Inhibition %: % of top inhibition
Description: as §1

LS180 = assay: Proliferation assay (CellTiter Glo); type: cell-based; settings: 96 hours; for Top Inhibition %: % of top inhibition
Description: as §1

MiaPaCa-2 = assay: Proliferation assay (CellTiter Glo); type: cell-based; settings: 96 hours; for Top Inhibition %: % of top inhibition
HL60 = assay: Proliferation assay (CellTiter Glo); type: cell-based, human; settings: 96 hours; for Top Inhibition %: % of top inhibition
Description: as §1

THP1 = assay: Proliferation assay (CellTiter Glo); type: cell-based, human; settings: 96 hours; for Top Inhibition %: % of top inhibition
Description: as §1

[1] = test system: A549 lung cancer cell line; assay: Combination viability/proliferation assays (384-well IC50 ratio, 96-well MacSynergy II); type: cell-based; settings: PKC activator compounds (K101A, K101E, K102)
[2] = test system: Mino (Mantle cell lymphoma); assay: Combination viability/proliferation assays; settings: Homo sapiens, MINO, read-out: inhibition on proliferation, alone
Description: Briefly, cells at density of 1,000-10,000 cells/well in 96-well plates or 200-1600 cells/well in 384-well plates were seeded and incubated at 37° C. for 24 hours before addition of compounds. A series of 9 different concentrations of compound stocks (500×) were prepared by 3-fold serial dilutions in DMSO. […] After 96 hours of incubation, 35 μL or 50 μL of CellTiter Glo reagent (Promega) was added to each well and luminescence was measured after 10 minutes using EnVision (PerkinElmer). Luminescence from cells treated with DMSO alone was set as Max and % of inhibition was calculated as follows: Inhibition %=(Max-Sample value)/Max*100. Data were analyzed using XLfit software (ID Business Solutions Ltd.) or GraphPad software and IC50, relative IC50, and % of top inhibition were calculated.
Various drugs or compounds (Table 10) were screened and assayed in 384-well plates as 9-point 3-fold dilution series alone and in combination with 2-3 doses of the specified PKC activator compounds (e.g., K101A, K101E, and K102). The top concentration for the tested PKC activator compound was set at roughly the IC50 when the same testing compound was used as a single agent assayed in the same cell line. The next dose was either 3-fold or 10-fold dilution from the top concentration.
The PKC activating agents (e.g., K101A, K101E, and K102) in combination with other chemotherapeutic agents, including standard chemotherapies and certain chemotherapeutic agents targeting certain cell signaling pathways, were also examined on cancer cells other than lung cancer cells.

[3] = test system: pancreatic, lung, colon and leukemia cancer cell lines; assay: Proliferation assay, summary over the panel of cancer cell lines; type: cell-based; settings: comparison with prostratin
Description: PKC activator compounds were tested in a panel of K-RAS mutant pancreatic, lung, and colon cancer cell lines, as well as a number of leukemia cell lines having either mutant K-RAS or N-RAS.
as §1

[4] = Homo sapiens, AGS (gastric, K-RAS: G12D), absolute EC50, read-out: Ab EC50
[5] = Homo sapiens, AGS, relative EC50, read-out: Re EC50
[6] = Homo sapiens, NCI-H358, absolute EC50, read-out: Ab EC50
[7] = Homo sapiens, NCI-H358, relative EC50, read-out: Re EC50
[8] = Homo sapiens, NCI-H441, H441 (K-RAS: G12V), absolute EC50, read-out: Ab EC50
[9] = Homo sapiens, NCI-H441, H441, relative EC50, read-out: Re EC50
[10] = Homo sapiens, NCI-H727, H727 (K-RAS: G12V), absolute EC50, read-out: Ab EC50
[11] = Homo sapiens, NCI-H727, H727, relative EC50, read-out: Re EC50
[12] = Homo sapiens, HCT-116, HCT116 (K-RAS: G13D), absolute EC50, read-out: Ab EC50
[13] = Homo sapiens, HCT-116, HCT116, relative EC50, read-out: Re EC50
[14] = Homo sapiens, KP-4 (K-RAS: G12C), absolute EC50, read-out: Ab EC50
[15] = Homo sapiens, KP-4, relative EC50, read-out: Re EC50
[16] = Homo sapiens, LS180 (K-RAS: G12D), absolute EC50, read-out: Ab EC50
[17] = Homo sapiens, MIA PaCa-2, MiaPaCa-2 (K-RAS: G12C), absolute EC50, read-out: Ab EC50
[18] = Homo sapiens, MIA PaCa-2, MiaPaCa-2, relative EC50, read-out: Re EC50
[19] = Homo sapiens, HL-60, HL60 (N-RAS: Q61L), absolute EC50, read-out: Ab EC50
[20] = Homo sapiens, HL-60, HL60, relative EC50, read-out: Re EC50
[21] = Homo sapiens, THP-1, THP1 (N-RAS: G12D), absolute EC50, read-out: Ab EC50
[22] = Homo sapiens, THP-1, THP1, relative EC50, read-out: Re EC50

SMILES | Top Inhibition % (AGS; AGS) [%] | EC50 (AGS; [4]) [nM] | EC50 (AGS; [5]) [nM] | Top Inhibition % (H358) [%] | EC50 (H358; [6]) [nM] | EC50 (H358; [7]) [nM] | Top Inhibition % (H441; H441) [%] | EC50 (H441; [8]) [nM] | EC50 (H441; [9]) [nM] | Top Inhibition % (H727; H727) [%] | EC50 (H727; [10]) [nM] | EC50 (H727; [11]) [nM] | Top Inhibition % (HCT116; HCT116) [%] | EC50 (HCT116; [12]) [nM] | EC50 (KP-4; [14]) [nM] | Top Inhibition % (KP-4; KP-4) [%] | EC50 (LS180; [16]) [nM] | Top Inhibition % (LS180; LS180) [%] | Top Inhibition % (HL60; HL60) [%] | Top Inhibition % (THP1; THP1) [%] | other results
CC(=O)O[C@H]1C(=O)[C@@]2(C)[C@H]([C@H](OC(=O)c3ccccc3)[C@]3(O)C[C@H](OC(=O)[C@H](O)[C@@H](NC(=O)c4ccccc4)c4ccccc4)C(C)=C1C3(C)C)[C@]1(OC(C)=O)CO[C@@H]1C[C@@H]2O [Paclitaxel] | 87.7 | 4.7 | 3.9 | 89.2 | 2.4 | 1.8 | 51.9 | 35.8 | 3.5 | 49.0 | > 500 | 2.3 | 94.8 | 2.2 | 1.9 | 96.2 | 14 | 67.1 | 98.7 | 91.2 | EC50 (HCT116; [13]): 2.1 nM; EC50 (KP-4; [15]): 1.8 nM; EC50 (LS180; Homo sapiens, LS180, relative EC50, read-out: Re EC50): 8.8 nM; EC50 (MiaPaCa-2; [17]): 3.4 nM; EC50 (MiaPaCa-2; [18]): 3.3 nM; EC50 (HL60; [19]): 5.2 nM; EC50 (HL60; [20]): 5.2 nM; EC50 (THP1; [21]): 8.3 nM; EC50 (THP1; [22]): 7.6 nM; effect in combination with the PKC activator compounds in inhibiting the growth of A549 cells [1]: insignificant synergism or antagonism
CC(=O)OCC1=CC2C3C(C)(C)C3(OC(C)=O)CC(C)C2(O)C2C=C(C)C(=O)C2(O)C1 (stereo not shown) [Compound K101E] | 25.9 | – | – | 47.9 | – | – | 49.1 | – | – | 49.1 | – | – | 27.4 | – | – | 69.1 | – | 1.3 | 63.4 | 51.6 | EC50 (AGS; AGS (gastric, K-RAS: G12D), absolute EC50, read-out: Ab EC50): > 30000 nM; EC50 (AGS; AGS, relative EC50, read-out: Re EC50): 4380 nM; EC50 (H358; absolute EC50, read-out: Ab EC50): > 30000 nM; EC50 (H358; relative EC50, read-out: Re EC50): 1250 nM; EC50 (H441; H441 (K-RAS: G12V), absolute EC50, read-out: Ab EC50): > 30000 nM; EC50 (H441; H441, relative EC50, read-out: Re EC50): 2610 nM; EC50 (H727; H727 (K-RAS: G12V), absolute EC50, read-out: Ab EC50): > 30000 nM; EC50 (H727; H727, relative EC50, read-out: Re EC50): 620 nM; EC50 (HCT116; HCT116 (K-RAS: G13D), absolute EC50, read-out: Ab EC50): > 30000 nM; EC50 (HCT116; HCT116, relative EC50, read-out: Re EC50): 6640 nM; EC50 (KP-4; KP-4 (K-RAS: G12C), absolute EC50, read-out: Ab EC50): 1280 nM; EC50 (KP-4; KP-4, relative EC50, read-out: Re EC50): 680 nM; EC50 (LS180; LS180 (K-RAS: G12D), absolute EC50, read-out: Ab EC50): > 30000 nM; EC50 (MiaPaCa-2; MiaPaCa-2 (K-RAS: G12C), absolute EC50, read-out: Ab EC50): 1880 nM; Top Inhibition % (MiaPaCa-2; MiaPaCa-2): 61.4%; EC50 (MiaPaCa-2; MiaPaCa-2, relative EC50, read-out: Re EC50): 860 nM; EC50 (HL60; HL60 (N-RAS: Q61L), absolute EC50, read-out: Ab EC50): 3050 nM; EC50 (HL60; HL60, relative EC50, read-out: Re EC50): 1920 nM; EC50 (THP1; THP1 (N-RAS: G12D), absolute EC50, read-out: Ab EC50): 3600 nM; EC50 (THP1; THP1, relative EC50, read-out: Re EC50): 1020 nM
CC(=O)O[C@@]12C[C@@H](C)[C@@]3(O)[C@@H](C=C(CO)C[C@]4(O)C(=O)C(C)=C[C@@H]34)[C@@H]1C2(C)C [Compound K101A, 12-deoxyphorbol 13-acetate] | 21.7 | > 30000 | 490 | 56.4 | 4900 | 160 | 42.1 | > 30000 | 320 | 48.3 | > 30000 | 190 | 17.4 | > 30000 | 400 | 63.3 | > 30000 | 4.4 | 61.3 | 51.8 | EC50 (KP-4; [15]): 190 nM; EC50 (MiaPaCa-2; [17]): 300 nM; EC50 (MiaPaCa-2; [18]): 180 nM; Top Inhibition % (MiaPaCa-2; MiaPaCa-2): 74.4%; EC50 (HL60; [19]): 470 nM; EC50 (HL60; [20]): 400 nM; EC50 (THP1; [21]): 870 nM; EC50 (THP1; [22]): 300 nM; inhibition at 0.1 µM [2]: < 10%
CCCCCCCCCCCCCC(=O)O[C@@H]1[C@@H](C)[C@@]2(O)[C@@H](C=C(CO)C[C@]3(O)C(=O)C(C)=C[C@@H]23)[C@@H]2C(C)(C)[C@]12OC(C)=O [Compound K103, 12-O-Tetradecanoylphorbol-13-acetate] | 47.2 | > 500 | 1.1 | 59.6 | 2.2 | 0.4 | 46.7 | > 500 | 0.75 | 57.4 | 2.2 | 0.37 | 21.4 | > 500 | < 4.6 | 70.3 | > 10000 | 14.7 | 60.0 | 52.9 | EC50 (HCT116; [13]): 1.2 nM; EC50 (MiaPaCa-2; [17]): 0.28 nM; EC50 (MiaPaCa-2; [18]): 0.24 nM; Top Inhibition % (MiaPaCa-2; MiaPaCa-2): 81.1%; EC50 (HL60; [19]): < 4.6 nM; EC50 (THP1; [21]): < 4.6 nM; potency in proliferation inhibition relative to prostratin [3]: more potent
